# Like-named read-outs stand apart in the source and are kept apart here.
# How the values were obtained:
# BChE [1] = tested on: BChE; design: method as in doi:10.1016/j.molstruc.2018.05.027, doi:10.3906/kim-1903-74; conditions: photoproducts of Figure 1; read-out: BChE inhibition IC50; cited from earlier work
# BChE [2] = assay type: biochemical; conditions: compared to huperzine A
# [3] = molecular target: BChE derived from purified human plasma (Homo sapiens, UniProt P06276); experiment: biochemical; conditions: 0.1 M phosphate buffer pH 7.4, 25 °C, ATCh substrate
# Sequence of BChE derived from purified human plasma (P06276 29-602): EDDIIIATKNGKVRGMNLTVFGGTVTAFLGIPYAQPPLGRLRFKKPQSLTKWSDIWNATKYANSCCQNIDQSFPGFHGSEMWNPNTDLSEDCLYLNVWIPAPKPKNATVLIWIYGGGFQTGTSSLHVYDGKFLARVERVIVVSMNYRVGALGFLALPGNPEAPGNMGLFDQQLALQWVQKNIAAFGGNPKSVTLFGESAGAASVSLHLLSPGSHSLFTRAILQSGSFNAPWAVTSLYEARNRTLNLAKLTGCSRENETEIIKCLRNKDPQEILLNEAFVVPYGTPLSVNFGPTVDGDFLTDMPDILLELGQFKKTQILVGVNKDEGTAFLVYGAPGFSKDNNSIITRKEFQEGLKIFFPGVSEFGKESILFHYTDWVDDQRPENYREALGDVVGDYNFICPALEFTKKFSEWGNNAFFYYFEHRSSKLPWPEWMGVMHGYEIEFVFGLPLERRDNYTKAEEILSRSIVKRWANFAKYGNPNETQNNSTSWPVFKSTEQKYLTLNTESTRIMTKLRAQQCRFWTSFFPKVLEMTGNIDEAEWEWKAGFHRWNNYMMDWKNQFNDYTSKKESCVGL
# recombinant human AChE = recombinant human AChE (Homo sapiens, UniProt P22303); experiment: biochemical; assay type: biochemical; conditions: for IC50: 0.1 M phosphate buffer pH 7.4, 25 °C, ATCh substrate, read-out: Inhibition of human AChE, IC50 ± SEM
# Sequence of recombinant human AChE (P22303 32-614): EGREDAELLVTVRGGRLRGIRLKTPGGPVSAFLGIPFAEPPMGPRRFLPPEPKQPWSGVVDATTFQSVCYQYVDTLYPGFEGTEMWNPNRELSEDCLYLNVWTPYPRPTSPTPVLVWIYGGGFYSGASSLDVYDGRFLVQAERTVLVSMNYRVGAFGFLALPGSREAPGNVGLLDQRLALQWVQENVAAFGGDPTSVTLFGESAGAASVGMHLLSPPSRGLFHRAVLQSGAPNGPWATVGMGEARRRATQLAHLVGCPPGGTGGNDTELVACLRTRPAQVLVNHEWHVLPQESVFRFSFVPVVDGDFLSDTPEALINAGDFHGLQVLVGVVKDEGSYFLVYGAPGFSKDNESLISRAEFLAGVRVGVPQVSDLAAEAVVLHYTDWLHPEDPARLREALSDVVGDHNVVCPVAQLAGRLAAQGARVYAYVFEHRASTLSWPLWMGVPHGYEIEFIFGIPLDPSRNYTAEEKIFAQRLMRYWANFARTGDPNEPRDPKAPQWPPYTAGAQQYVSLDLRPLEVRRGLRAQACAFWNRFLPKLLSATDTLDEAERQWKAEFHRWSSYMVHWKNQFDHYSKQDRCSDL
# AChE = tested on: AChE; design: method as in doi:10.1016/j.molstruc.2018.05.027, doi:10.3906/kim-1903-74; conditions: photoproducts of Figure 1; read-out: AChE inhibition IC50; cited from earlier work
# [4] = Table 1, benzobicyclo[3.2.1]octadiene benzylamines, read-out: Inhibition of BChE, IC50 ± SEM
# [5] = Table 2, oximes and oxime ethers, read-out: Inhibition of BChE, IC50 ± SEM
# [6] = Table 3, epoxides, alcohols and ethers
# [7] = Table 3, epoxides, alcohols and ethers, read-out: Inhibition of human BChE, IC50 ± SEM
# [8] = Table 4, acylated furo-benzobicyclo[3.2.1]octenes/octadienes
# [9] = Table 4, acylated furo-benzobicyclo[3.2.1]octenes/octadienes, read-out: Inhibition of human BChE, IC50 ± SEM
compound,measurement,setting,value
C1=CC(c2ccncc2)C2CC1c1ccccc12 (stereo not drawn) [endo-2],IC50,BChE [1],8.8 µM
same,Potency as BChE inhibitor in comparison to huperzine A,BChE [2],about five times more potent
Cc1ccc(CNc2ccc(C3C=CC4CC3c3ccccc34)cc2)cc1 (stereo not drawn) [endo-11],IC50,[3]; [4],≥ 500 µM
CC(C)O/N=C/C/C=C1\C(O)CC2CC1c1ccccc12 (stereo not drawn) [Compound 32],IC50,[3]; [5],31 ± 4 µM
"C1=C[C@H](c2ccc(NCc3ccco3)cc2)[C@H]2C[C@@H]1c1ccccc12 [endo-7, 4-((5R,6S,9S)-6,9-Dihydro-5H-5,9-methanobenzo[7]annulen-6-yl)-N-(fur-2-ylmethyl)aniline]",IC50,[3]; [4],≥ 500 µM
COc1ccc(CNc2ccc(C3C=CC4CC3c3ccccc34)cc2)cc1 (stereo not drawn) [endo-17],IC50,[3]; [4],> 500 µM
O=C1CC2CC(/C1=C/C/C=N/OCCCCl)c1ccccc12 (stereo not drawn) [Compound 35],IC50,[3]; [5],60 ± 11 µM
Cc1ccccc1CNc1ccc(C2=CCC3CC2c2ccccc23)cc1 (stereo not drawn) [Compound 9],IC50,[3]; [4],240 ± 210 µM
"CCCOC1C[C@@H]2C[C@@H](c3ccccc32)[C@H]1c1ccc(OC)cc1 (stereo partly drawn) [endo-47, (5R,6S,9S)-6-(4-Methoxyphenyl)-7-propoxy-6,7,8,9-tetrahydro-5H-5,9-methanobenzo[7]annulene]",IC50,recombinant human AChE; [6],> 100 µM
same,IC50,[3]; [7],> 200 µM
CC(=O)O/N=C/C/C=C1\C(O)CC2CC1c1ccccc12 (stereo not drawn) [Compound 34],IC50,[3]; [5],78 ± 31 µM
CC(C)O/N=C/C/C=C1\C(O)=CC2CC1c1ccccc12 (stereo not drawn) [Compound 31],IC50,[3]; [5],90 ± 40 µM
CC(C)O/N=C/c1cc2c(o1)CC1CC2c2ccccc21 (stereo not drawn) [Compound 28],IC50,[3]; [5],24 ± 3 µM
CCO/N=C/c1cc2c(o1)CC1CC2c2ccccc21 (stereo not drawn) [Compound 26],IC50,[3]; [5],380 ± 250 µM
"C/C(O)=C/C=C1\C(O)CC2CC1c1ccccc12 [Compound 51, (5R,9R,Z)-6-((Z)-3-Hydroxybut-2-ene-1-ilydene)-6,7,8,9-tetrahydro-5H-5,9-methano-benzo[7]annulen-7-ol]",IC50,recombinant human AChE; [8],8.3 ± 4 µM
same,IC50,[3]; [9],> 300 µM
"CCCOC1C[C@@H]2C[C@@H](c3ccccc32)[C@H]1c1ccccc1 (stereo partly drawn) [endo-43, (5R,6S,9S)-6-Phenyl-7-propoxy-6,7,8,9-tetrahydro-5H-5,9-methanobenzo[7]annulene]",IC50,recombinant human AChE; [6],> 100 µM
same,IC50,[3]; [7],17 ± 2 µM
Clc1cccc(CNc2ccc(C3C=CC4CC3c3ccccc34)cc2)c1 (stereo not drawn) [endo-13],IC50,[3]; [4],> 500 µM
"CCOC1C[C@@H]2C[C@@H](c3ccccc32)[C@H]1c1ccc(OC)cc1 (stereo partly drawn) [endo-46, (5R,6S,9S)-7-Ethoxy-6-(4-methoxyphenyl)-6,7,8,9-tetrahydro-5H-5,9-methanobenzo-[7]annulene]",IC50,recombinant human AChE; [6],270 ± 110 µM
same,IC50,[3]; [7],> 500 µM
Fc1ccc(CNc2ccc(C3C=CC4CC3c3ccccc34)cc2)cc1 (stereo not drawn) [endo-20],IC50,[3]; [4],> 500 µM
"Clc1ccc(C2C=CC3CC2c2ccccc23)cc1 (stereo not drawn) [endo-1, 11-(4-Chlorophenyl)tricyclo[6.3.1.0^²,7]dodeca-2,4,6,9-tetraene]",IC50,AChE,17.5 µM
Clc1ccc(C2=CCC3CC2c2ccccc23)cc1 (stereo not drawn) [Compound 1],IC50,[3]; [4],260 ± 120 µM
CC(=O)O/N=C/c1cc2c(o1)CC1CC2c2ccccc21 (stereo not drawn) [Compound 30],IC50,[3]; [5],61 ± 36 µM
COc1cccc(CNc2ccc(C3C=CC4CC3c3ccccc34)cc2)c1 (stereo not drawn) [endo-16],IC50,[3]; [4],> 500 µM
Nc1ccc(C2=CCC3CC2c2ccccc23)cc1 (stereo not drawn) [Compound 20],IC50,[3]; [4],182 ± 98 µM
"OCCCOC1CC2CC(c3ccccc32)C1c1ccccc1 [endo-45, 3-(((5R,6S,9S)-6-Phenyl-6,7,8,9-tetrahydro-5H-5,9-methanobenzo[7]annulen-7-il)oxy)propan-1-ol]",IC50,recombinant human AChE; [6],> 100 µM
same,IC50,[3]; [7],90 ± 24 µM
Fc1cccc(CNc2ccc(C3C=CC4CC3c3ccccc34)cc2)c1 (stereo not drawn) [endo-19],IC50,[3]; [4],> 500 µM
Cc1ccccc1CNc1ccc(C2C=CC3CC2c2ccccc23)cc1 (stereo not drawn) [endo-9],IC50,[3]; [4],> 500 µM
"CCC(=O)C/C=C1\C(O)=CC2CC1c1ccccc12 [Compound 53, (Z)-1-((5R,9R)-7-Hydroxy-5,9-dihydro-6H-5,9-methanobenzo[7]annulen-6-ilydene)-pentan-3-one]",IC50,recombinant human AChE; [8],188 ± 133 µM
same,IC50,[3]; [9],146 ± 30 µM
COc1ccccc1CNc1ccc(C2C=CC3CC2c2ccccc23)cc1 (stereo not drawn) [endo-15],IC50,[3]; [4],> 500 µM
Cc1cccc(CNc2ccc(C3C=CC4CC3c3ccccc34)cc2)c1 (stereo not drawn) [endo-10],IC50,[3]; [4],63 ± 13 µM
Fc1ccccc1CNc1ccc(C2C=CC3CC2c2ccccc23)cc1 (stereo not drawn) [endo-18],IC50,[3]; [4],> 500 µM
"C1=C[C@H](c2ccc(NCc3cccs3)cc2)[C@H]2C[C@@H]1c1ccccc12 [endo-8, 4-((5R,6S,9S)-6,9-dihydro-5H-5,9-methanobenzo[7]annulen-6-yl)-N-(thien-2-ylmethyl)aniline]",IC50,[3]; [4],> 500 µM
C=CCCO/N=C/C(=O)/C=C1\C=CC2CC1c1ccccc12 (stereo not drawn) [Compound 33],IC50,[3]; [5],140 ± 49 µM
COc1ccc(CNc2ccc(C3=CCC4CC3c3ccccc34)cc2)cc1 (stereo not drawn) [Compound 17],IC50,[3]; [4],120 ± 64 µM
"c1ccc([C@H]2C3OC3[C@@H]3C[C@H]2c2ccccc23)cc1 (stereo partly drawn) [endo-38, (2R,7R,8S)-8-Phenyl-1a,7,8,8a-tetrahydro-2H-2,7-methanobenzo[4,5]cyclohepta[1,2-b]-oxirene]",Potency for AChE relative to BChE (fold lower),recombinant human AChE; AChE versus BChE,3 fold
same,IC50,recombinant human AChE; [6],62 ± 8 µM
same,IC50,[3]; [7],22 ± 5 µM
"COc1ccc([C@H]2[C@@H]3OC3[C@@H]3C[C@H]2c2ccccc23)cc1 (stereo partly drawn) [endo-39, (2R,7R,8S,8as)-8-(4-Methoxyphenyl)-1a,7,8,8a-tetrahydro-2H-2,7-methanobenzo[4,5]cyclohepta[1,2-b]oxirene]",IC50,recombinant human AChE; [6],> 100 µM
same,IC50,[3]; [7],33 ± 6 µM
C=CCO/N=C/c1cc2c(o1)CC1CC2c2ccccc21 (stereo not drawn) [Compound 29],IC50,[3]; [5],100 ± 32 µM
"CCCO/N=C\c1cc2c(o1)CC1CC2c2ccccc21 (stereo not drawn) [Compound 27, (Z)-9,10-Dihydro-4H-4,9-methanobenzo[4,5]cyclohepta[1,2-b]furan-2-carbaldehyde O-propyl oxime]",IC50,[3]; [5],74 ± 19 µM
Clc1ccc(CNc2ccc(C3C=CC4CC3c3ccccc34)cc2)cc1 (stereo not drawn) [endo-14],IC50,[3]; [4],> 500 µM
"C1=C[C@H](c2ccc(NCc3ccccc3)cc2)[C@H]2C[C@@H]1c1ccccc12 [endo-4, N-Benzyl-4-((5R,6S,9S)-6,9-dihydro-5H-5,9-methanobenzo[7]annulen-6-yl)aniline]",IC50,[3]; [4],110 ± 77 µM

# Reference: paper PMC7659976, “Benzobicyclo[3.2.1]octene Derivatives as a New Class of Cholinesterase Inhibitors” (Molecules, 2020)
